From patent US20210386753A1, “METHODS OF ADMINISTERING INTRAVENOUS MELOXICAM PRE-OPERATIVELY AND IN COMBINATION WITH OTHER DRUGS” (BAUDAX BIO, INC., priority 2018, published 2021)
Where two headings read alike, the source gives them in different places.

Tests used:
Plasma Tmax of meloxicam = type: in vivo; conditions: human, 30 mg, methods as disclosed herein (IV bolus)
patients [1] = assay: Onset, peak and duration of analgesic effect; type: in vivo, human; conditions: meloxicam administration as disclosed herein (IV)
[2] = following oral administration, cited from earlier work
patients [3] = conditions: intravenous; Prescribing Information; cited from earlier work

Row | Tmax (Plasma Tmax of meloxicam) [min] | Compound | therapeutic window (patients [1]) | time of maximum observed plasma concentration (tmax) [2] [h] | time of maximum observed plasma concentration (tmax) ([2]; listed as oral meloxicam) [h] | time for the onset of pain relief (patients [3])
1 | 4.8 to 9.6 | Cc1cnc(NC(=O)C2=C(O)c3ccccc3S(=O)(=O)N2C)s1 [meloxicam, 4-hydroxy-2-methyl-N-(5-methyl-2-thiazolyl)-2H-1,2-benzothiazine-3-carboxamide-1,1-dioxide] | at least 24 hours | 5 to 7 | 5 to 6 | 
2 |  | O=C(c1ccccc1)c1ccc2n1CCC2C(=O)O (centres unmarked) [ketorolac] |  |  |  | up to 30 minutes
